Laboratory results reported in patent publication US20180303853A1, “COMPOSITIONS AND METHODS FOR TREATING BACTERIAL INFECTIONS USING CEFTAROLINE” (priority 2017, published 2018).

Key:
[1] = Excretion after single IV dose of radiolabeled ceftaroline fosamil in healthy male adults; format: in vivo, human; settings: in vivo
Protocol: Following administration of a single 600 mg IV dose of radiolabeled ceftaroline fosamil to healthy male adults, approximately 87% of radioactivity was recovered in urine and 6% in feces. The majority of the radioactivity (˜90%) was recovered within 48 hours. Of the radioactivity recovered in urine, approximately 64% was excreted as ceftaroline and approximately 2% as ceftaroline-M-1.

[2] = human, in vivo
S. pneumoniae = assay: Example 5 CAP study, outcome by baseline pathogen; format: in vivo
Description: (§1) Per-pathogen clinical cure rate and favorable microbiological outcome rate at TOC in the mMITTE and ME Populations;

E. coli = assay: Example 5 CAP study, outcome by baseline pathogen; format: in vivo
Description: as §1

H. influenzae = assay: Example 5 CAP study, outcome by baseline pathogen; format: in vivo
Description: as §1

S. aureus = assay: Example 5 CAP study, outcome by baseline pathogen; format: in vivo
Description: as §1

H. parainfluenzae = assay: Example 5 CAP study, outcome by baseline pathogen; format: in vivo
Description: as §1

MDRSP = assay: Example 4 CAP study, outcome by baseline pathogen; format: in vivo, S. pneumoniae
Description: as §1

[3] = tested on: Community-Acquired Bacterial Pneumonia (CABP); assay: Two Phase 3 studies in CABP, clinical cure at TOC (single and integrated/combined); format: in vivo, human; settings: TOC; for Combined clinical cure rate: combined data of the two CAP studies; for Weighted treatment difference (95% CI), ceftaroline versus ceftriaxone: combined data
Protocol: In both treatment groups of CABP Study 1, two doses of oral clarithromycin (500 mg q12 h), were administered as adjunctive therapy starting on Study Day 1. No adjunctive macrolide therapy was used in CABP Study 2. Patients with new or progressive pulmonary infiltrate(s) on chest radiography and clinical signs and symptoms consistent with CABP with the need for hospitalization and IV therapy were enrolled in the studies. Treatment duration was 5 to 7 days. A switch to oral therapy was not allowed. The Modified Intent-to-Treat Efficacy (MITTE) population, included all patients who received any amount of study drug according to their randomized, treatment group and were in PORT (Pneumonia Outcomes Research Team) Risk Class III or IV.
The primary efficacy endpoint was the clinical response at the Test of Cure (TOC) visit in the co-primary Ce and MITTE populations (Table 4).

clinical = settings: human, in vivo
[4] = tested on: community-acquired pneumonia (CAP); assay: Example 5 Phase 3 study, ceftaroline vs ceftriaxone with adjunctive clarithromycin in CAP, efficacy; format: in vivo, human
Description: The secondary objective of the study was to evaluate the following: the clinical response at end-of-therapy (EOT); the microbiological favorable outcome rate at TOC; the overall (clinical and radiographic) success rate at TOC; the clinical and microbiological response by pathogen at TOC; clinical relapse at late follow-up (LFU); microbiological reinfection/recurrence at LFU; and safety.
The primary efficacy outcome measures were the per-subject clinical cure rate at TOC in the CE and MITTE Populations. Subjects were considered clinically cured at TOC if they had total resolution of all signs and symptoms of the baseline infection, or improvement of the infection such that no further antimicrobial therapy was necessary.
Non-inferiority was concluded if the lower limit of the 95% CI was higher than −10%.

human plasma protein = format: in vitro ADME

CCO/N=C(\C(=O)N[C@@H]1C(=O)N2C(C(=O)[O-])=C(Sc3nc(-c4cc[n+](C)cc4)cs3)CS[C@H]12)c1nsc(N)n1 [Ceftaroline, ceftaroline]
route of elimination [1]: primarily eliminated by the kidneys
change in exposure (Cmax and AUC) with concomitant CYP450 inhibitors, inducers, substrates [2]: did nor identify any clinically relevant increases
Favorable Microbiological Outcome at TOC by Baseline Pathogen (S. pneumoniae; Example 5, ME): 21/24 (87.5)
Clinical Cure Rate at the TOC Visit by Baseline Pathogen (S. pneumoniae; Example 5, ME Population): 21/24 (87.5)
Favorable Microbiological Outcome at TOC by Baseline Pathogen (E. coli; Example 5, ME): 8/8 (100.0)
Clinical Cure Rate at the TOC Visit by Baseline Pathogen (E. coli; Example 5, ME Population): 8/8 (100.0)
Favorable Microbiological Outcome at TOC by Baseline Pathogen (H. influenzae; Example 5, ME): 2/3 (66.7)
Clinical Cure Rate at the TOC Visit by Baseline Pathogen (H. influenzae; Example 5, ME Population): 2/3 (66.7)
Favorable Microbiological Outcome at TOC by Baseline Pathogen (S. aureus; Example 5, ME): 8/10 (80.0)
Clinical Cure Rate at the TOC Visit by Baseline Pathogen (S. aureus; Example 5, ME Population): 8/10 (80.0)
Favorable Microbiological Outcome at TOC by Baseline Pathogen (H. parainfluenzae; Example 5, ME): 7/7 (100.0)
Clinical Cure Rate at the TOC Visit by Baseline Pathogen (H. parainfluenzae; Example 5, ME Population): 7/7 (100.0)
Favorable Microbiological Outcome at TOC by Baseline Pathogen (MDRSP; Example 4, ME): 2/2 (100.0)
Clinical Cure Rate at the TOC Visit by Baseline Pathogen (MDRSP; Example 4, ME Population): 2/2 (100.0)
Combined clinical cure rate ([3]; CE): 387/459 (84.3) %
Combined clinical cure rate ([3]; ME): 131/154 (85.1) %
Combined clinical cure rate ([3]; MITTE): 479/580 (82.6) %
Combined clinical cure rate ([3]; mMITTE): 138/165 (83.6) %
Weighted treatment difference (95% CI), ceftaroline versus ceftriaxone ([3]; CE): 6.7 (1.6, 11.8) %
Weighted treatment difference (95% CI), ceftaroline versus ceftriaxone ([3]; CE, listed as ceftaroline): 6.7%
Weighted treatment difference (95% CI), ceftaroline versus ceftriaxone ([3]; ME): 9.7 (0.7, 18.8) %
Weighted treatment difference (95% CI), ceftaroline versus ceftriaxone ([3]; ME, listed as ceftaroline): 9.7%
Weighted treatment difference (95% CI), ceftaroline versus ceftriaxone ([3]; MITTE): 6.0 (1.4, 10.7) %
Weighted treatment difference (95% CI), ceftaroline versus ceftriaxone ([3]; mMITTE): 8.7 (−0.0, 17.4) %
Weighted treatment difference (95% CI), ceftaroline versus ceftriaxone ([3]; mMITTE, listed as ceftaroline): 8.7%
clearance (clinical; CL/Fm): 160 mL/min
half-life (clinical; mean plasma terminal elimination half-life): ~2.5 h
half-life (clinical; t1/2): 1.6 h
Difference (ceftaroline minus ceftriaxone), Clinical Cure Rate at EOT ([4]; Example 5, CE): 7.6%
Difference (ceftaroline minus ceftriaxone), Clinical Success at TOC ([4]; Example 5, CE): 8.4%
Clinical Success at the TOC Visit ([4]; Example 5, CE population): 194 (86.6) %
Per-subject Clinical Cure Rate at the EOT Visit ([4]; Example 5, CE population): 197 (87.9) %
Difference (ceftaroline minus ceftriaxone), Favorable Microbiological Outcome at TOC ([4]; Example 5, ME): 11.0%
Favorable Microbiological Outcome at the TOC Visit ([4]; Example 5, ME population): 62 (89.9) %
Difference (ceftaroline minus ceftriaxone), Clinical Cure Rate at EOT ([4]; Example 5, MITTE): 6.3%
Difference (ceftaroline minus ceftriaxone), Clinical Success at TOC ([4]; Example 5, MITTE): 6.2%
Clinical Success at the TOC Visit ([4]; Example 5, MITTE population): 244 (83.8) %
Per-subject Clinical Cure Rate at the EOT Visit ([4]; Example 5, MITTE population): 253 (86.9) %
Difference (ceftaroline minus ceftriaxone), Favorable Microbiological Outcome at TOC ([4]; Example 5, mMITTE): 9.3%
Favorable Microbiological Outcome at the TOC Visit ([4]; Example 5, mMITTE population): 66 (88.0) %
binding to human plasma protein (human plasma protein): approximately 20%
